Consider 1 molecule from ChEMBL document CHEMBL5113450, “Discovery of potent dual ligands for dopamine D4 and σ1 receptors” (Bioorg Med Chem, 2022).

Assay [1] has as its target Sigma intracellular receptor 2 (Homo sapiens) (UniProt Q5BJF2). Put plainly: Displacement of [3H]-DTG/(+) pentazocine from human sigma2 receptor at 3 uM measured after 60 mins by scintillation counting analysis. On the technique in general: Loss of bound radioactivity is the signal in a displacement assay; it reports binding, not function.
Assay [2] addresses D(1A) dopamine receptor (Homo sapiens) (UniProt P21728). Put plainly: Displacement of [3H]SCH 23390 from recombinant human D1 receptor at 3 uM measured after 60 mins by scintillation counting analysis.
A further assay concerns the target D(2) dopamine receptor (Homo sapiens, UniProt P14416). Put plainly: Displacement of [3H]methyl-spiperone from recombinant human D2S receptor measured after 60 mins by scintillation counting analysis.
The target in assay [3] is Voltage-gated inwardly rectifying potassium channel KCNH2 (Homo sapiens, UniProt Q12809). Put plainly: Displacement of [3H]dofetilide from recombinant human ERG stably expressed in HEK293 cell membranes measured after 60 mins by scintillation counting analysis. Format: toxicity, Membrane.
The next assay deals with D(3) dopamine receptor (Homo sapiens, UniProt P35462). Put plainly: Displacement of [3H]methyl-spiperone from recombinant human D3 receptor measured after 60 mins by scintillation counting analysis.

The structures appear in SMILES notation. The source made the active and inactive calls. The rule behind the calls is not given here. Where only a bound is given, the exact number is not on record here.

Chain of D(2) dopamine receptor (P14416 whole entry): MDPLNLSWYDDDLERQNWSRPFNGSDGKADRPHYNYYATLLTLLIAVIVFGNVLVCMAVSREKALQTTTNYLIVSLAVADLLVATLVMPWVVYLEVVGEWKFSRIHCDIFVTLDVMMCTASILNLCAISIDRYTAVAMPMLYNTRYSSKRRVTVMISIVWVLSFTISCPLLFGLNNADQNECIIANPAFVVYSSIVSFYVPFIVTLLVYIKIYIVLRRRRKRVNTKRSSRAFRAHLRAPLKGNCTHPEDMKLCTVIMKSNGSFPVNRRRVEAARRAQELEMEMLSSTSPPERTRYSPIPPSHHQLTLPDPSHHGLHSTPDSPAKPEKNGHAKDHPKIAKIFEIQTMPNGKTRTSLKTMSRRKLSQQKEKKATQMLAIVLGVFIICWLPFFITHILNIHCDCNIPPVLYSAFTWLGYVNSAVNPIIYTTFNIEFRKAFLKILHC
Chain of Voltage-gated inwardly rectifying potassium channel KCNH2 (Q12809 whole entry): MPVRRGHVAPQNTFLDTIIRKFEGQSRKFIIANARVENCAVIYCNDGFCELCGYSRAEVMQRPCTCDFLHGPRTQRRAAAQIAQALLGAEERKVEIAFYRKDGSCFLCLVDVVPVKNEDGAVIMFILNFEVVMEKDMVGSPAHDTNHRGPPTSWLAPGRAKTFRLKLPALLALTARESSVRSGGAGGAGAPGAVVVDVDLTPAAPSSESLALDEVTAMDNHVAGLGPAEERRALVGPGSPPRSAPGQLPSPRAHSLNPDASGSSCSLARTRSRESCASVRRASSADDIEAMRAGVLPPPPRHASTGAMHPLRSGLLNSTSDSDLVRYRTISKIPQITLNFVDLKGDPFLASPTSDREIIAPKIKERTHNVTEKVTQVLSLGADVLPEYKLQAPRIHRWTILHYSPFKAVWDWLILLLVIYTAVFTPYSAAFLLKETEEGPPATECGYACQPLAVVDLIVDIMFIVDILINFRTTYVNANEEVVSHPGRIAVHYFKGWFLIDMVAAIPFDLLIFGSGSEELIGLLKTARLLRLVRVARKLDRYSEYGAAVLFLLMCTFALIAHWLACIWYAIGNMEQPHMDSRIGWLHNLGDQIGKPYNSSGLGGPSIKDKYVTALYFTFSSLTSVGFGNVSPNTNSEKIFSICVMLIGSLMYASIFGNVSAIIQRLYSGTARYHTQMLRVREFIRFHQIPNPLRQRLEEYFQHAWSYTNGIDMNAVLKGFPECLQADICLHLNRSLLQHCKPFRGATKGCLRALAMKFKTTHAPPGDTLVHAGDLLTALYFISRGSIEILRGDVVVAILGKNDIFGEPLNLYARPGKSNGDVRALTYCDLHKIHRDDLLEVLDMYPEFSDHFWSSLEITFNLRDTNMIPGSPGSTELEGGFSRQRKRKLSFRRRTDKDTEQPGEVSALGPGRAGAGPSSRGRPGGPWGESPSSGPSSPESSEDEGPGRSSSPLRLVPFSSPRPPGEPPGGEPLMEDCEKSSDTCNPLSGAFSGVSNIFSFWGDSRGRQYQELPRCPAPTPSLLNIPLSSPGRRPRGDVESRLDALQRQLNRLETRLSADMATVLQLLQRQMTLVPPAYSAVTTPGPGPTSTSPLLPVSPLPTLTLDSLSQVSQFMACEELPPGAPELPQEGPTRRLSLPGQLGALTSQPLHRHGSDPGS
Chain of D(1A) dopamine receptor (Homo sapiens) (P21728 whole entry): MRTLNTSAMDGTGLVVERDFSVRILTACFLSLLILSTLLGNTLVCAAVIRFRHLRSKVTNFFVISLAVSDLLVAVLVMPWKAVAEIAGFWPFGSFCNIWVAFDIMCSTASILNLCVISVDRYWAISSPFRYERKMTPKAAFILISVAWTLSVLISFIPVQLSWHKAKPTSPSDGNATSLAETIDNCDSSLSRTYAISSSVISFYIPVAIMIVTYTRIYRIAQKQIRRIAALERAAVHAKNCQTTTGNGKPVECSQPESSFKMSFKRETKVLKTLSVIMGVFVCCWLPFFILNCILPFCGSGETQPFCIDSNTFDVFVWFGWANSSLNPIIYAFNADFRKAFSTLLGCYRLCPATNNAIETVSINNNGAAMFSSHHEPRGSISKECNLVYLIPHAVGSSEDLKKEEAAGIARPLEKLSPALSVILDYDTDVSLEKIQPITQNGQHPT
Chain of D(3) dopamine receptor (P35462 whole entry): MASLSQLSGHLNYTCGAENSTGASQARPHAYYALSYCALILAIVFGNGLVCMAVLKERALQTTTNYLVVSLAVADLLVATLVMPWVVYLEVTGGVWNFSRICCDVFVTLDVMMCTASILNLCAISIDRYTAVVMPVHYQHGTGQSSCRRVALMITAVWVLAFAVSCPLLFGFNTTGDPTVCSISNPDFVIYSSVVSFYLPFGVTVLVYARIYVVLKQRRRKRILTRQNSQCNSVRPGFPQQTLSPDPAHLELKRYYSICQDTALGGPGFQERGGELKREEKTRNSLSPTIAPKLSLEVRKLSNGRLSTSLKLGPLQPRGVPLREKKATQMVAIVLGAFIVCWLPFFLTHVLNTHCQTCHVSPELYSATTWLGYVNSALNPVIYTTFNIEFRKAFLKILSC
Chain of Sigma intracellular receptor 2 (Homo sapiens) (Q5BJF2 whole entry): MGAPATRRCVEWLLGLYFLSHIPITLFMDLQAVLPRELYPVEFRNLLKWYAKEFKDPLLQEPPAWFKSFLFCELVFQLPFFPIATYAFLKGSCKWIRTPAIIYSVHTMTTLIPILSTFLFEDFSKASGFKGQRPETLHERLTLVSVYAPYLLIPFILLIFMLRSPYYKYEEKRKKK

Broadly, the Ki is the equilibrium dissociation constant of an inhibitor or competing ligand from its target. As for `c1ccc(Cc2cn(C3CCN(Cc4ccccc4)CC3)nn2)cc1`, the outcome in assay [1] and in assay [2] was Active. Besides, the Ki at D(2) dopamine receptor was 6.3 µM; in assay [3] it was 4.6 µM; on D(3) dopamine receptor, above 10 µM.
